Reference: US10316017B2, “COT modulators and methods of use thereof” (Gilead Sciences, Inc., priority 2015, dated 2019)

What was measured:
[1] = test system: TNFα production in LPS-stimulated human monocytes; assay: Cot Monocyte TNFα Cell Based Assay; settings: Homo sapiens, Monocyte, TNFα in LPS-stimulated human monocytes; read-out: EC50 TNF
Procedure, shortened: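 TR-FRET read-out of total secreted TNFα, normalized as % control (unstimulated = 0%, LPS-stimulated = 100%). Cells (5,000/well) were exposed to compound 1 h at 37 °C, then to 50 pg/ml LPS for a further 4 h.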

[2] = target: T1, human Cot catalytic domain (30-397 amino acids) (Homo sapiens, UniProt P41279); assay: High Throughput Cot Biochemical Assay (KinEASE TR-FRET); settings: Cot biochemical HTRF (KinEASE TR-FRET) assay; read-out: IC50 HTRF
T1 construct: Purified recombinant human Cot catalytic domain (30-397 amino acids) was purchased from Cama Biosciences; purchased Cama Biosciences (so in the source)
Procedure, shortened: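 TR-FRET readout: Eu-labeled phospho-specific antibody binds XL665-tagged STK3 peptide after phosphorylation by Cot (aa 30-397, 5 nM). Conditions: 400 μM ATP, 1 μM peptide, MOPS pH 7.0 buffer with MgOAc, DTT, BSA, NP-40, glycerol; 0.1% DMSO.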

T1 sequence (P41279 30-397): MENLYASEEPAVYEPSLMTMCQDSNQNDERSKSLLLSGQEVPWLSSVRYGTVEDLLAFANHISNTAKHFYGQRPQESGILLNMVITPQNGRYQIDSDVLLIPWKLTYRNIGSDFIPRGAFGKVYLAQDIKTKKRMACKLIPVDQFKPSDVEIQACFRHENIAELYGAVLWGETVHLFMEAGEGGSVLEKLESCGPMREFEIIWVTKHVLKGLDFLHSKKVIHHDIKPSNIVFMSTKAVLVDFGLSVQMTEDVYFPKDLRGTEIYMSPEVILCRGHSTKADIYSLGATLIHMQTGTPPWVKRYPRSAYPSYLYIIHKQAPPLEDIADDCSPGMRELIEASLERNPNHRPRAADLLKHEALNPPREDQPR

| SMILES | EC50 [1] | IC50 [2] |
| --- | --- | --- |
| CC(C)(C)N1CCC(n2cc([C@@H](Nc3cc(Cl)c4ncc(C#N)c(NCCc5ccccc5)c4c3)c3ccc(Cl)cc3)nn2)CC1 [Example 703, (S)-6-(((1-(1-(tert-butyl)piperidin-4-yl)-1H-1,2,3-triazol-4-yl)(4-chlorophenyl)methyl)amino)-8-chloro-4-(phenethylamino)quinoline-3-carbonitrile] | 12 µM | 0.095 µM |
| C[C@@H](Nc1c(C#N)cnc2c(Cl)cc(N[C@@H](c3ccc(Cl)cc3)c3cn(C4CCN(C(C)(C)C)CC4)nn3)cc12)c1ccccc1 [Example 704, 6-(((S)-(1-(1-(tert-butyl)piperidin-4-yl)-1H-1,2,3-triazol-4-yl)(4-chlorophenyl)methyl)amino)-8-chloro-4-(((R)-1-phenylethyl)amino)quinoline-3-carbonitrile] | 3.51 µM | 0.037 µM |
| C[C@H](Nc1c(C#N)cnc2c(Cl)cc(N[C@@H](c3ccc(Cl)cc3)c3cn(C4CCN(C(C)(C)C)CC4)nn3)cc12)c1ccccc1 [Example 705, 6-(((S)-(1-(1-(tert-butyl)piperidin-4-yl)-1H-1,2,3-triazol-4-yl)(4-chlorophenyl)methyl)amino)-8-chloro-4-(((S)-1-phenylethyl)amino)quinoline-3-carbonitrile] | 12.2 µM | 2.83 µM |
| CC(C)(C)N1CCC(n2cc([C@@H](Nc3cc(Cl)c4ncc(C#N)c(NCc5ccccc5)c4c3)c3ccc(Cl)cc3)nn2)CC1 [Example 706, (S)-4-(benzylamino)-6-(((1-(1-(tert-butyl)piperidin-4-yl)-1H-1,2,3-triazol-4-yl)(4-chlorophenyl)methyl)amino)-8-chloroquinoline-3-carbonitrile] | 12.8 µM | 0.095 µM |
| CC1(C)CC(n2cc([C@@H](Nc3cc(F)c4ncc(C#N)c(Nc5ccc(F)c(Cl)c5)c4c3)c3ccc(Cl)cc3)nn2)CC(C)(C)N1 [Example 707, (S)-4-((3-chloro-4-fluorophenyl)amino)-6-(((4-chlorophenyl)(1-(2,2,6,6-tetramethylpiperidin-4-yl)-1H-1,2,3-triazol-4-yl)methyl)amino)-8-fluoroquinoline-3-carbonitrile] | 3.01 µM | 0.134 µM |
| N#Cc1cnc2c(F)cc(N[C@@H](c3ccc(Cl)cc3)c3cn(C4CCN(C5COC5)CC4)nn3)cc2c1Nc1ccc(F)c(Cl)c1 [Example 708, (S)-4-((3-chloro-4-fluorophenyl)amino)-6-(((4-chlorophenyl)(1-(1-(oxetan-3-yl)piperidin-4-yl)-1H-1,2,3-triazol-4-yl)methyl)amino)-8-fluoroquinoline-3-carbonitrile] | 0.533 µM | 0.103 µM |
| CC(C)(C)N1CCC(n2cc([C@@H](Nc3cc(F)c4ncc(C#N)c(Nc5ccc(F)c(Cl)c5)c4c3)c3ccc(Cl)cc3)nn2)CC1 [Example 709, (S)-6-(((1-(1-(tert-butyl)piperidin-4-yl)-1H-1,2,3-triazol-4-yl)(4-chlorophenyl)methyl)amino)-4-((3-chloro-4-fluorophenyl)amino)-8-fluoroquinoline-3-carbonitrile] | 0.307 µM | 0.018 µM |
| CC(C)n1cc([C@@H](Nc2cc(Cl)c3ncc(C#N)c(Nc4ccc(F)c(Cl)c4)c3c2)c2cccc(CN(C)CCN(C)C)c2)nn1 [Example 710, (S)-8-chloro-4-((3-chloro-4-fluorophenyl)amino)-6-(((3-(((2-(dimethylamino)ethyl)(methyl)amino)methyl)phenyl) (1-isopropyl-1H-1,2,3-triazol-4-yl)methyl)amino) quinoline-3-carbonitrile] | 0.352 µM | 0.02 µM |
| CC(C)n1cc([C@@H](Nc2cc(Cl)c3ncc(C#N)c(Nc4ccc(F)c(Cl)c4)c3c2)c2cccc(CNCCN(C)C)c2)nn1 [Example 711, (S)-8-chloro-4-((3-chloro-4-fluorophenyl)amino)-6-(((3-(((2-(dimethylamino)ethyl)amino)methyl)phenyl)(1-isopropyl-1H-1,2,3-triazol-4-yl)methyl)amino)quinoline-3-carbonitrile] | > 10 µM | 0.046 µM |
| CC(C)n1cc([C@@H](Nc2cc(Cl)c3ncc(C#N)c(Nc4ccc(F)c(Cl)c4)c3c2)c2cccc(CN(C)C)c2)nn1 [Example 712, (S)-8-chloro-4-((3-chloro-4-fluorophenyl)amino)-6-(((3-((dimethylamino)methyl)phenyl)(1-isopropyl-1H-1,2,3-triazol-4-yl)methyl)amino)quinoline-3-carbonitrile] | 0.498 µM | 0.014 µM |
| CC(C)n1cc([C@@H](Nc2cc(Cl)c3ncc(C#N)c(Nc4ccc(F)c(Cl)c4)c3c2)c2cccc(CO)c2)nn1 [Example 713, (S)-8-chloro-4-((3-chloro-4-fluorophenyl)amino)-6-(((3-(hydroxymethyl)phenyl)(1-isopropyl-1H-1,2,3-triazol-4-yl)methyl)amino)quinoline-3-carbonitrile] | 0.358 µM | 0.017 µM |
| CC(C)(C)N1CCC(n2cc([C@@H](Nc3cc(Cl)c4ncc(C#N)c(NC5CCCC5)c4c3)c3ccc(Cl)cc3)nn2)CC1 [Example 714, (S)-6-(((1-(1-(tert-butyl)piperidin-4-yl)-1H-1,2,3-triazol-4-yl)(4-chlorophenyl)methyl)amino)-8-chloro-4-(cyclopentylamino)quinoline-3-carbonitrile] | 1.7 µM | 0.131 µM |
| CC(C)(C)N1CCC(n2cc([C@@H](Nc3cc(Cl)c4ncc(C#N)c(NC5CCCCC5)c4c3)c3ccc(Cl)cc3)nn2)CC1 [Example 715, (S)-6-(((1-(1-(tert-butyl)piperidin-4-yl)-1H-1,2,3-triazol-4-yl)(4-chlorophenyl)methyl)amino)-8-chloro-4-(cyclohexylamino)quinoline-3-carbonitrile] | 2.08 µM | 0.062 µM |
| CC(C)(C)N1CCC(n2cc([C@@H](Nc3cc(Cl)c4ncc(C#N)c(NC5CCCCCC5)c4c3)c3ccc(Cl)cc3)nn2)CC1 [Example 716, (S)-6-(((1-(1-(tert-butyl)piperidin-4-yl)-1H-1,2,3-triazol-4-yl)(4-chlorophenyl)methyl)amino)-8-chloro-4-(cycloheptylamino)quinoline-3-carbonitrile] | 0.847 µM | 0.06 µM |
| CC(C)(C)N1CCC(n2cc([C@@H](Nc3cc(Cl)c4ncc(C#N)c(Nc5ccc(F)c(Cl)c5)c4c3)c3ccccc3CN3CCOCC3)nn2)CC1 [Example 719, (S)-6-(((1-(1-(tert-butyl)piperidin-4-yl)-1H-1,2,3-triazol-4-yl)(2-(morpholinomethyl)phenyl)methyl)amino)-8-chloro-4-((3-chloro-4-fluorophenyl)amino)quinoline-3-carbonitrile] | 2.58 µM | 0.041 µM |
| CN(C)Cc1ccccc1[C@H](Nc1cc(Cl)c2ncc(C#N)c(Nc3ccc(F)c(Cl)c3)c2c1)c1cn(C2CCN(C(C)(C)C)CC2)nn1 [Example 720, (S)-6-(((1-(1-(tert-butyl)piperidin-4-yl)-1H-1,2,3-triazol-4-yl)(2-((dimethylamino)methyl)phenyl)methyl)amino)-8-chloro-4-((3-chloro-4-fluorophenyl)amino)quinoline-3-carbonitrile] | 3.99 µM | 0.072 µM |
| N#Cc1cnc2c(Cl)cc(N[C@@H](c3ccccc3)c3cn(-c4cccnc4)nn3)cc2c1Nc1ccc(F)c(Cl)c1 [Example 721, (S)-8-chloro-4-((3-chloro-4-fluorophenyl)amino)-6-((phenyl (1-(pyridin-3-yl)-1H-1,2,3-triazol-4-yl)methyl)amino)quinoline-3-carbonitrile] | 0.47 µM | 0.021 µM |
| CC(C)(C)N1CCC(n2cc([C@@H](Nc3cc(Cl)c4ncc(C#N)c(Nc5ccc(F)c(Cl)c5)c4c3)c3ccccc3CO)nn2)CC1 [Example 722, (S)-6-(((1-(1-(tert-butyl)piperidin-4-yl)-1H-1,2,3-triazol-4-yl)(2-(hydroxymethyl)phenyl)methyl)amino)-8-chloro-4-((3-chloro-4-fluorophenyl)amino)quinoline-3-carbonitrile] | 0.076 µM | 0.004 µM |
| N#Cc1cnc2c(Cl)cc(N[C@@H](c3ccc(Cl)cc3)c3cn(C4CCN(C5COC5)CC4)nn3)cc2c1Nc1ccc(F)c(F)c1 [Example 723, (S)-8-chloro-6-(((4-chlorophenyl)(1-(1-(oxetan-3-yl)piperidin-4-yl)-1H-1,2,3-triazol-4-yl)methyl)amino)-4-((3,4-difluorophenyl)amino)quinoline-3-carbonitrile] | 1.29 µM | 0.217 µM |
| COCCOCCn1cc([C@@H](Nc2cc(Cl)c3ncc(C#N)c(Nc4ccc(F)c(F)c4)c3c2)c2ccc(Cl)cc2)nn1 [Example 724, (S)-8-chloro-6-(((4-chlorophenyl)(1-(2-(2-methoxyethoxy)ethyl)-1H-1,2,3-triazol-4-yl)methyl)amino)-4-((3,4-difluorophenyl)amino) quinoline-3-carbonitrile] | 1.4 µM | 0.087 µM |
| CC(C)(O)c1cccc([C@H](Nc2cc(Cl)c3ncc(C#N)c(Nc4ccc(F)c(Cl)c4)c3c2)c2cn(C3CCN(C(C)(C)C)CC3)nn2)c1 [Example 727, (S)-6-(((1-(1-(tert-butyl)piperidin-4-yl)-1H-1,2,3-triazol-4-yl)(3-(2-hydroxypropan-2-yl)phenyl)methyl)amino)-8-chloro-4-((3-chloro-4-fluorophenyl)amino)quinoline-3-carbonitrile] | 0.178 µM | 0.003 µM |
